In patent US7438926B2, “Methods for inhibiting decrease in transdermal drug flux by inhibition of pathway closure” (Alza Corporation, priority 2000, dated 2008):
Where “and” joins values, the source holds several entries; their conditions need not be identical. Equal entries are not always repeated. Structures can show the parent of a compound that is named as a salt. Ends that are not written are not given here.

Test system: pathway closure
Test: Inhibition of pathway closure by chemicals, methylene blue dye score after microprotrusion array pretreatment
Type: in vivo, hairless guinea pigs
Experimental: Inhibition of pathway collapse by chemical agents was studied following pretreatment of the skin with a microprotrusion array and application of a formulation containing the agent for 24 h. Quantitation was performed by evaluation of dye impregnation of the pathways.
Application of the microprotrusion array was performed with an impact applicator. […] Following application, the stretching tension was released. […] The guinea pig received a second system containing a different formulation on the opposite site. Twenty four hours after application, three systems from each group were removed and residual formulation washed from the skin. The skin was stained with a 1% methylene blue solution. Excess dye was thoroughly removed with 70% isopropyl alcohol pads and a picture of the site was taken. Pictures were scored on a 0 to 5 scale, 5 being the dye uptake obtained immediately following microprotrusion array application and 0 being the dye uptake obtained after 24 h contact with a control formulation. A score of 0.5 or greater was considered significant. Various osmotic agents, anticoagulants, antiinflammatory agents, gelling agents as well as gels of different pH and various additives were tested (Table II).

[1] = 24 h, methylene blue evaluation, Table II
[2] = additive concentration 11%, 24 h, scale 0 to 5, 0.5 or greater significant
[3] = additive concentration 23%, 24 h, scale 0 to 5, 0.5 or greater significant
[4] = additive concentration 50%, 24 h, scale 0 to 5, 0.5 or greater significant
[5] = additive concentration 2%, 24 h, scale 0 to 5, 0.5 or greater significant
[6] = additive concentration 1%, 24 h, scale 0 to 5, 0.5 or greater significant
[7] = additive concentration 5%, 24 h, scale 0 to 5, 0.5 or greater significant
[8] = additive concentration 10%, 24 h, scale 0 to 5, 0.5 or greater significant
[9] = additive concentration 30%, 24 h, scale 0 to 5, 0.5 or greater significant
[10] = additive concentration 13%, 24 h, scale 0 to 5, 0.5 or greater significant
[11] = additive concentration 12%, 24 h, scale 0 to 5, 0.5 or greater significant
[12] = additive concentration 0.05%, 24 h, scale 0 to 5, 0.5 or greater significant

CCC(O)CO (stereo not drawn) [1-2 Butane diol]
Score (methylene blue) (guinea pig, in vivo): 2.0 ± 0.8

CC(O)CCO (stereo not drawn) [1-3 Butane diol]
Score (methylene blue) (guinea pig, in vivo): 0.2 ± 0.2

OCCCCO [1-4 Butane diol]
Score (methylene blue) (guinea pig, in vivo): 3.0 ± 0.3

CC(O)C(C)O (stereo not drawn) [2-3 Butane diol]
Score (methylene blue) (guinea pig, in vivo): 2.2 ± 0.2

OC[C@@H](O)[C@@H](O)[C@@H](O)CO [Adonitol]
Effect on pathway closure (in words) [1]: most effective agents
Score (methylene blue) [2]: 3.0 ± 0.3
Score (methylene blue) [3]: 3.5 ± 0.3
Score (methylene blue) [4]: 3.7 ± 0.3

CC(=O)O.N [Ammonium acetate]
Score (methylene blue) (guinea pig, in vivo): 2.1 ± 0.1

Cl.N [Ammonium chloride]
Score (methylene blue) (guinea pig, in vivo): 2.6 ± 0.1

C[C@H]1C[C@H]2[C@@H]3CCC4=CC(=O)C=C[C@]4(C)[C@@]3(F)[C@@H](O)C[C@]2(C)[C@@]1(O)C(=O)COP(=O)([O-])[O-].[Na+].[Na+] [Betamethasone phospate Na, reference compound]
Effect on pathway closure (in words) [1]: significant effect
Score (methylene blue) [5]: 2.3 ± 0.4

[Ca+2].[Cl-].[Cl-] [Calcium chloride]
Score (methylene blue) (guinea pig, in vivo): 0.7 ± 0.4

CCCCCCCCCCCCCCCC[n+]1ccccc1 [Cetyl pyridinium chloride]
Score (methylene blue) (guinea pig, in vivo): 0 ± 0

O=C(O)CC(O)(CC(=O)O)C(=O)O [Citric acid disodium salt]
Score (methylene blue) (additive concentration 0.5%, 24 h, scale 0 to 5, 0.5 or greater significant): 0 ± 0
Score (methylene blue) [6]: 0.3 ± 0.2
Score (methylene blue) (additive concentration 3%, 24 h, scale 0 to 5, 0.5 or greater significant): 1.2 ± 0.2

C=C1[C@@H](C)[C@H]2[C@H](Cc3ccccc3)NC(=O)[C@]23[C@H](OC(C)=O)/C=C/[C@@](C)(O)C(=O)[C@@H](C)C/C=C/[C@H]3[C@@H]1O [Cytochalasin D, reference compound]
Score (methylene blue) (additive concentration 0.025%, 24 h, scale 0 to 5, 0.5 or greater significant): 1.5 ± 0.0

O=C[C@H](O)[C@@H](O)[C@H](O)[C@H](O)CO [D-Glucose]
Effect on pathway closure (in words) [1]: most effective agents
Score (methylene blue) [7]: 1.5 ± 0.0
Score (methylene blue) [2]: 1.8 ± 0.6
Score (methylene blue) [3]: 3.5 ± 0.5
Score (methylene blue) [4]: 4.0 ± 0.3

OCCOCCO [Diethylene glycol]
Effect on pathway closure (in words) (guinea pig, in vivo): most effective agents
Score (methylene blue) (guinea pig, in vivo): 3.2 ± 0.2

C[S+](C)[O-] [Dimethylsulfoxide]
Score (methylene blue) [8]: 1.0 ± 0.0

O=C(O)CN(CCN(CC(=O)O)CC(=O)O)CC(=O)O [EDTA]
Effect on pathway closure (in words) (guinea pig, in vivo): most effective agents in preventing pathway closure
Score (methylene blue) (guinea pig, in vivo): 1.3 ± 0.2

OC[C@@H](O)[C@@H](O)CO [Erythritol]
Score (methylene blue) [9]: 3.3 ± 0.4

CCO [Ethanol]
Score (methylene blue) (additive concentration 0% (4.3 M), 24 h, scale 0 to 5, 0.5 or greater significant): 0 ± 0

CCOCCOCCO [Ethoxydiglycol]
Score (methylene blue) [4]: 0.5 ± 0.3

Cl.N[C@H]1C(O)O[C@H](CO)[C@H](O)[C@@H]1O (stereo partly drawn) [Galactosamine hydrochloride]
Score (methylene blue) [4]: 2.8 ± 0.3

O=C([O-])[C@H](O)[C@@H](O)[C@H](O)[C@H](O)CO.[Na+] [Gluconic acid sodium salt]
Score (methylene blue) [8]: 2.7 ± 0.2
Score (methylene blue) [10]: 3.3 ± 0.0
Score (methylene blue) [9]: 4.5 ± 0.0

O=C[C@H](O)[C@@H](O)[C@H](O)[C@H](O)C(=O)[O-].[Na+] [Glucuronic acid sodium salt]
Effect on pathway closure (in words) [1]: most effective agents
Score (methylene blue) [7]: 1.0 ± 0.0
Score (methylene blue) [8]: 3.5 ± 0.3
Score (methylene blue) [10]: 3.0 ± 0.3

NCC(=O)O [Glycine]
Score (methylene blue) (additive concentration 9%, 24 h, scale 0 to 5, 0.5 or greater significant): 1.8 ± 0.3

O=C(O)CO [Glycolic acid, sodium salt]
Score (methylene blue) (additive concentration 6%, 24 h, scale 0 to 5, 0.5 or greater significant): 1.7 ± 0.1
Score (methylene blue) [11]: 2.6 ± 0.1
Score (methylene blue) (additive concentration 24%, 24 h, scale 0 to 5, 0.5 or greater significant): 2.7 ± 0.1

O[C@H]1[C@H](O)[C@@H](O)[C@H](O)[C@@H](O)[C@H]1O [Inositol]
Score (methylene blue) [8]: 1.5 ± 0.3

CC(C)O [Isopropyl alcohol]
Score (methylene blue) [9]: 0.2 ± 0.2

CC(C(=O)O)c1cccc(C(=O)c2ccccc2)c1 (stereo not drawn) [Ketoprofen Na, reference compound]
Effect on pathway closure (in words) [1]: significant effect
Score (methylene blue) [5]: 2.3 ± 0.6

O=C[C@@H](O)[C@H](O)[C@@H](O)[C@@H](O)CO [L-Glucose]
Score (methylene blue) [3]: 3.5 ± 0.3

O=C(O)CC(O)C(=O)O (stereo not drawn) [Malic acid, disodium salt]
Score (methylene blue) [2]: 2.1 ± 0.3

[Cl-].[Na+] [NaCl]
Score (methylene blue) (guinea pig, in vivo): 1.8 ± 0.2

CC(O)CO (stereo not drawn) [Propylene glycol]
Score (methylene blue) [9]: 0.7 ± 0.2
Score (methylene blue) [4]: 1.3 ± 0.1
Score (methylene blue) (additive concentration 70%, 24 h, scale 0 to 5, 0.5 or greater significant): 1.0 ± 0.6

O=C[C@H](O)[C@H](O)[C@H](O)CO [Ribose]
Score (methylene blue) [4]: 2.3 ± 0.3

CC(=O)[O-].[Na+] [Sodium acetate]
Score (methylene blue) (guinea pig, in vivo): 1.7 ± 0.1

CCCCCCCCCCCCOS(=O)(=O)[O-].[Na+] [Sodium dodecyl sulfate]
Score (methylene blue) (additive concentration 0.01%, 24 h, scale 0 to 5, 0.5 or greater significant): 0 ± 0

OC[C@@H](O)[C@@H](O)[C@H](O)[C@@H](O)CO [Sorbitol]
Effect on pathway closure (in words) [1]: most effective agents
Score (methylene blue) [2]: 1.3 ± 0.6
Score (methylene blue) [3]: 3.3 ± 0.3
Score (methylene blue) [4]: 3.3 ± 0.3

OC[C@H]1O[C@@](CO)(O[C@H]2O[C@H](CO)[C@@H](O)[C@H](O)[C@H]2O)[C@@H](O)[C@@H]1O [Sucrose]
Score (methylene blue) [4]: 1.7 ± 0.6

O=C(O)C(O)C(O)C(=O)O (stereo not drawn) [Tartaric acid, disodium salt]
Score (methylene blue) [11]: 1.5 ± 0.4

OC[C@H]1O[C@H](O[C@H]2O[C@H](CO)[C@@H](O)[C@H](O)[C@H]2O)[C@H](O)[C@@H](O)[C@@H]1O [Trehalose]
Score (methylene blue) [4]: 1.5 ± 0.0

OCCOCCOCCO [Triethylene glycol]
Score (methylene blue) [8]: 1.3 ± 0.3
Score (methylene blue) [9]: 3.3 ± 0.3
Score (methylene blue) [4]: 3.7 ± 0.3

Cl.NC(CO)(CO)CO [Tromethamine hydrochloride]
Effect on pathway closure (in words) (guinea pig, in vivo): most effective agents
Score (methylene blue) (guinea pig, in vivo, hydrochloride): 3.7 ± 0.3 and 2.3 ± 0.3

O=C(O)c1ccccc1O [salicylic acid]
Effect on pathway closure (in words) [1]: had an effect on pathway closure

Arg-Gly-Asp [reference compound]
Score (methylene blue) [6]: 0.7 ± 0.4

Heparin [reference compound]
Score (methylene blue) [5]: 0.3 ± 0.2

Insulin [reference compound]
Score (methylene blue) (additive concentration 3 mM, 24 h, scale 0 to 5, 0.5 or greater significant): 0.2 ± 0.2

Laminin
Score (methylene blue) [12]: 1.0 ± 0.3

PEG-4
Score (methylene blue) [4]: 2 ± 0.6

PEG-12
Score (methylene blue) [4]: 0 ± 0

PEG-350
Score (methylene blue) [4]: 0 ± 0

SIKVAV [reference compound]
Score (methylene blue) [12]: 0.5 ± 0.5

Tyr-Ile-Gly-Ser-Arg-NH2 (YIGSR-NH2) [reference compound]
Score (methylene blue) [12]: 0.3 ± 0.3
